Laboratory results published in PMC4281105 (Journal of medicinal chemistry, 2014).
Read-outs that look alike come from different tables or passages of the source. Marks after values point to notes of the source that are not given here.

Columns and labels:
hRSV strain Long = assay: hRSV CPE assay; format: cell-based, human respiratory syncytial virus
RSV = assay: viral titer; format: cell-based, human respiratory syncytial virus; conditions: for log reduction at 10 µM: human respiratory syncytial virus, read-out: viral titer reduction at 10 µM
[1] = human respiratory syncytial virus, HEp-2, read-out: RSV CPE potency ± standard deviation EC50, HEp-2 cells, hRSV strain Long, 10-point dose response
[2] = read-out: RSV CPE potency ± standard deviation EC50, HEp-2 cells, hRSV strain Long, 10-point dose response

| SMILES | EC50 (hRSV strain Long; [1]) [nM] | log reduction at 10 µM (RSV) | other results |
| --- | --- | --- | --- |
| COCCCNC(=O)c1ccc(Cn2c(=O)c3ccccc3n(Cc3ccccc3Br)c2=O)cc1 [Compound 8, 4-((1-(2-Bromobenzyl)-2,4-dioxo-1,2-dihydroquinazolin-3(4H)-yl)methyl)-N-(3-methoxypropyl)benzamide] | > 50000 |  |  |
| COCCCNC(=O)c1ccc(Cn2c(=O)c3ccccc3n(Cc3cccc(Br)c3)c2=O)cc1 [Compound 9, 4-((1-(3-Bromobenzyl)-2,4-dioxo-1,2-dihydroquinazolin-3(4H)-yl)methyl)-N-(3-methoxypropyl)benzamide] | 2200 ± 100 |  |  |
| COCCCNC(=O)c1ccc(Cn2c(=O)c3ccccc3n(Cc3ccc(Br)cc3)c2=O)cc1 [Compound 10, 4-((1-(4-Bromobenzyl)-2,4-dioxo-1,2-dihydroquinazolin-3(4H)-yl)methyl)-N-(3-methoxypropyl)benzamide] | 900 ± 200 | 4.1 |  |
| COCCCNC(=O)c1ccc(Cn2c(=O)c3ccccc3n(Cc3ccc(F)cc3)c2=O)cc1 [Compound 12, 4-((1-(4-Fluorobenzyl)-2,4-dioxo-1,2-dihydroquinazolin-3(4H)-yl)-methyl)-N-(3-methoxypropyl)benzamide] | 5100 ± 400 |  |  |
| COCCCNC(=O)c1ccc(Cn2c(=O)c3ccccc3n(Cc3ccc(Cl)cc3)c2=O)cc1 [Compound 13, 4-((1-(4-Chlorobenzyl)-2,4-dioxo-1,2-dihydroquinazolin-3(4H)-yl)methyl)-N-(3-methoxypropyl)benzamide] | 6700 ± 1900 | 3.1 |  |
| COCCCNC(=O)c1ccc(Cn2c(=O)c3ccccc3n(Cc3ccc(OC)cc3)c2=O)cc1 [Compound 14, 4-((1-(4-Methoxybenzyl)-2,4-dioxo-1,2-dihydroquinazolin-3(4H)-yl)methyl)-N-(3-methoxypropyl)benzamide] | 2000 ± 900 | 2.7 |  |
| COCCCNC(=O)c1ccc(Cn2c(=O)c3ccccc3n(Cc3ccc([N+](=O)[O-])cc3)c2=O)cc1 [Compound 15, N-(3-Methoxypropyl)-4-((1-(4-nitrobenzyl)-2,4-dioxo-1,2-dihydroquinazolin-3(4H)-yl)methyl)benzamide] | 500 ± 50 | 5.6 | EC50 (hRSV strain Long; human respiratory syncytial virus, RSV CPE, as given in abstract): 300 to 500 nM; viral titer reduction at 10 µM (RSV; compound at 10 µM): 5.6 ^f log |
| COCCCNC(=O)c1ccc(Cn2c(=O)c3ccccc3n(Cc3ccc(C(F)(F)F)cc3)c2=O)cc1 [Compound 16, 4-((2,4-Dioxo-1-(4-(trifluoromethyl)benzyl)-1,2-dihydroquinazolin-3(4H)-yl)methyl)-N-(3-methoxypropyl)benzamide] | 1300 ± 100 | 2.7 |  |
| COCCCNC(=O)c1ccc(Cn2c(=O)c3ccccc3n(Cc3ccc(C#N)cc3)c2=O)cc1 [Compound 17, 4-((1-(4-Cyanobenzyl)-2,4-dioxo-1,2-dihydroquinazolin-3(4H)-yl)methyl)-N-(3-methoxypropyl)benzamide] | 1300 ± 200 | 4.2 |  |
| CCc1ccc(Cn2c(=O)n(Cc3ccc(C(=O)NCCCOC)cc3)c(=O)c3ccccc32)cc1 [Compound 18, 4-((1-(4-Ethylbenzyl)-2,4-dioxo-1,2-dihydroquinazolin-3(4H)-yl)-methyl)-N-(3-methoxypropyl)benzamide] | 1000 ± 50 | 5.9 |  |
| COCCCNC(=O)c1ccc(Cn2c(=O)c3ccccc3n(Cc3ccc4nonc4c3)c2=O)cc1 [Compound 20, 4-((1-(Benzo[c][1,2,5]oxadiazol-5-ylmethyl)-2,4-dioxo-1,2-dihydroquinazolin-3(4H)-yl)methyl)-N-(3-methoxypropyl)benzamide] | 4900 ± 700 | 2.1 |  |
| COCCCNC(=O)c1ccc(Cn2c(=O)c3ccccc3n(Cc3cc(C)on3)c2=O)cc1 [Compound 21, N-(3-Methoxypropyl)-4-((1-((5-methylisoxazol-3-yl)methyl)-2,4-dioxo-1,2 dihydroquinazolin-3(4H)-yl)methyl)benzamide] | > 50000 |  |  |
| COCCCNC(=O)c1ccc(Cn2c(=O)c3ccccc3n(Cc3ccccn3)c2=O)cc1 [Compound 22, 4-((2,4-Dioxo-1-(pyridin-2-ylmethyl)-1,2-dihydroquinazolin-3(4H)-yl)methyl)-N-(3-methoxypropyl)benzamide] | > 50000 | 0.1 |  |
| COCCCNC(=O)c1ccc(Cn2c(=O)c3ccccc3n(Cc3cccnc3)c2=O)cc1 [Compound 23, 4-((2,4-Dioxo-1-(pyridin-3-ylmethyl)-1,2-dihydroquinazolin-3(4H)-yl)methyl)-N-(3-methoxypropyl)benzamide] | > 50000 | 0.9 |  |
| COc1cc(NC(=O)c2ccc(Cn3c(=O)c4ccccc4n(Cc4ccc(C(C)C)cc4)c3=O)cc2)ccn1 [Compound 50, 4-((1-(4-Isopropylbenzyl)-2,4-dioxo-1,2-dihydroquinazolin-3(4H)-yl)methyl)-N-(2-methoxypyridin-4-yl)benzamide] | 500 ± 60 |  |  |
| COCCCNC(=O)c1ccc(Cn2c(Cc3cccc(C(C)C)c3)nc3ccccc3c2=O)cc1 [Compound 51, 4-((2-(3-Isopropylbenzyl)-4-oxoquinazolin-3(4H)-yl)methyl)-N-(3-methoxypropyl) benzamide] |  |  | EC50 (hRSV strain Long; [2]): > 50000 nM |
| COCCCNC(=O)c1ccc(Cn2c(Cc3ccc(C(C)C)cc3)nc3ccccc3c2=O)cc1 [Compound 52, 4-((2-(4-Isopropylbenzyl)-4-oxoquinazolin-3(4H)-yl)methyl)-N-(3-methoxypropyl)benzamide] | > 50000 |  |  |

Now from value to compound, other results behind:

| EC50 (hRSV strain Long; [1]) [nM] | SMILES | log reduction at 10 µM (RSV) | other results |
| --- | --- | --- | --- |
| 2140 | COCCCNC(=O)c1ccc(Cn2c(=O)c3ccccc3n(Cc3ccc(C)cc3)c2=O)cc1 [Compound 2, N-(3-Methoxypropyl)-4-((1-(4-methylbenzyl)-2,4-dioxo-1,2-dihydroquinazolin-3(4H)-yl)methyl)benzamide] | 4.2 | EC50 (hRSV strain Long; [2]): 2100 ± 500 nM |
| 1900 ± 200 | CCOCCCNC(=O)c1ccc(Cn2c(=O)c3ccccc3n(Cc3ccc(C)cc3)c2=O)cc1 [Compound 24, N-(3-Ethoxypropyl)-4-((1-(4-methylbenzyl)-2,4-dioxo-1,2-dihydroquinazolin-3(4H)-yl)methyl)benzamide] |  |  |
| 2000 ± 200 | Cc1ccc(Cn2c(=O)n(Cc3ccc(C(=O)NCCCOC(C)C)cc3)c(=O)c3ccccc32)cc1 [Compound 25, N-(3-Isopropoxypropyl)-4-((1-(4-methylbenzyl)-2,4-dioxo-1,2-dihydroquinazolin-3(4H)-yl)methyl)benzamide] |  |  |
| 9500 ± 400 | Cc1ccc(Cn2c(=O)n(Cc3ccc(C(=O)NCCCN(C)C)cc3)c(=O)c3ccccc32)cc1 [Compound 26, N-(3-(Dimethylamino)propyl)-4-((1-(4-methylbenzyl)-2,4-dioxo-1,2-dihydroquinazolin-3(4H)-yl)methyl)benzamide] |  |  |
| 800 ± 50 | COCCCCNC(=O)c1ccc(Cn2c(=O)c3ccccc3n(Cc3ccc(C)cc3)c2=O)cc1 [Compound 27, N-(4-Methoxybutyl)-4-((1-(4-methylbenzyl)-2,4-dioxo-1,2-dihydroquinazolin-3(4H)-yl)methyl)benzamide] | 2.1 |  |
| 2200 ± 1400 | COCCNC(=O)c1ccc(Cn2c(=O)c3ccccc3n(Cc3ccc(C)cc3)c2=O)cc1 [Compound 28, N-(2-Methoxyethyl)-4-((1-(4-methylbenzyl)-2,4-dioxo-1,2-dihydroquinazolin-3(4H)-yl)methyl)benzamide] |  |  |
| > 50000 | Cc1ccc(Cn2c(=O)n(Cc3ccc(C(=O)N4CCOCC4)cc3)c(=O)c3ccccc32)cc1 [Compound 31, 1-(4-Methylbenzyl)-3-(4-(morpholine-4-carbonyl)benzyl)-quinazoline-2,4(1H,3H)-dione] |  |  |
| > 50000 | Cc1ccc(Cn2c(=O)n(Cc3ccc(C(=O)N4CCCC4)cc3)c(=O)c3ccccc32)cc1 [Compound 32, 1-(4-Methylbenzyl)-3-(4-(pyrrolidine-1-carbonyl)benzyl)-quinazoline-2,4(1H,3H)-dione] |  |  |
| > 50000 | Cc1ccc(Cn2c(=O)n(Cc3ccc(C(=O)N4CCCCC4)cc3)c(=O)c3ccccc32)cc1 [Compound 33, 1-(4-Methylbenzyl)-3-(4-(piperidine-1-carbonyl)benzyl)-quinazoline-2,4(1H,3H)-dione] |  |  |
| 2200 ± 900 | CNC(=O)c1ccc(Cn2c(=O)c3ccccc3n(Cc3ccc(C)cc3)c2=O)cc1 [Compound 34, N-Methyl-4-((1-(4-methylbenzyl)-2,4-dioxo-1,2-dihydroquinazolin-3(4H)-yl)methyl)benzamide] |  |  |
| > 50000 | Cc1ccc(Cn2c(=O)n(Cc3ccc(C(=O)N(C)C)cc3)c(=O)c3ccccc32)cc1 [Compound 35, N,N-Dimethyl-4-((1-(4-methylbenzyl)-2,4-dioxo-1,2-dihydroquinazolin-3(4H)-yl)methyl)benzamide] |  |  |
| > 50000 | Cc1ccc(Cn2c(=O)n(Cc3ccc(C(=O)NC4CCCCC4)cc3)c(=O)c3ccccc32)cc1 [Compound 37, N-Cyclohexyl-4-((1-(4-methylbenzyl)-2,4-dioxo-1,2-dihydroquinazolin-3(4H)-yl)methyl)benzamide] |  |  |
| > 50000 | Cc1ccc(Cn2c(=O)n(Cc3ccc(C(=O)Nc4ccccc4)cc3)c(=O)c3ccccc32)cc1 [Compound 38, 4-((1-(4-Methylbenzyl)-2,4-dioxo-1,2-dihydroquinazolin-3(4H)-yl)methyl)-N-phenylbenzamide] |  |  |
| > 50000 | Cc1ccc(Cn2c(=O)n(Cc3ccc(C(=O)NCc4ccccc4)cc3)c(=O)c3ccccc32)cc1 [Compound 39, N-Benzyl-4-((1-(4-methylbenzyl)-2,4-dioxo-1,2-dihydroquinazolin-3(4H)-yl)methyl)benzamide] |  |  |
| > 50000 | Cc1ccc(Cn2c(=O)n(Cc3ccc(C(=O)NCc4ccco4)cc3)c(=O)c3ccccc32)cc1 [Compound 40, N-(Furan-2-ylmethyl)-4-((1-(4-methylbenzyl)-2,4-dioxo-1,2-dihydroquinazolin-3(4H)-yl)methyl)benzamide] |  |  |
| > 50000 | Cc1ccc(Cn2c(=O)n(Cc3ccc(C(=O)Nc4nccs4)cc3)c(=O)c3ccccc32)cc1 [Compound 41, 4-((1-(4-Methylbenzyl)-2,4-dioxo-1,2-dihydroquinazolin-3(4H)-yl)methyl)-N-(thiazol-2-yl)benzamide] |  |  |
